How the values were obtained:
Type in all cases: in vivo
[1] = system: Crabgrass (Digitaria sanguinalis); test: Pre-Emergent Test, herbicidal effectiveness; details: pre-emergence, 504 h, 33 micrograms per cm^2, 3 weeks, 0-to-100 scale, read-out: Herbicidal Effectiveness, % Control Pre, C
Protocol: (§1) An acetone solution of the test compound was prepared by mixing 750 mg of the compound, 220 mg of a nonionic surfactant and 25 ml of acetone. This solution was added to approximately 125 ml of water containing 156 mg of surfactant.
(§2) Seeds of the test vegetation were planted in a pot of soil and the test solution was sprayed uniformly onto the soil surface at a dose of 33 micrograms/cm^2. The pot was watered and placed in a greenhouse. […] At the end of this period, the herbicidal effectiveness of the compound was rated based on the physiological observations. A 0-to-100 scale was used, 0 representing no phytotoxicity, 100 representing complete kill.

[2] = system: Lambsquarter (Chenopodium album); test: Pre-Emergent Test, herbicidal effectiveness; details: pre-emergence, 504 h, 33 micrograms per cm^2, 3 weeks, 0-to-100 scale, read-out: Herbicidal Effectiveness, % Control Pre, L
Protocol: as §1, §2

[3] = system: Mustard (Brassica arvensis); test: Pre-Emergent Test, herbicidal effectiveness; details: pre-emergence, 504 h, 33 micrograms per cm^2, 3 weeks, 0-to-100 scale
Protocol: as §1, §2

[4] = system: Pigweed (Amaranthus retroflexus); test: Pre-Emergent Test, herbicidal effectiveness; details: pre-emergence, 504 h, 33 micrograms per cm^2, 3 weeks, 0-to-100 scale, read-out: Herbicidal Effectiveness, % Control Pre, P
Protocol: as §1, §2

[5] = system: Watergrass (Echinochloa); test: Pre-Emergent Test, herbicidal effectiveness; details: pre-emergence, 504 h, 33 micrograms per cm^2, 3 weeks, 0-to-100 scale, read-out: Herbicidal Effectiveness, % Control Pre, W
Protocol: as §1, §2

[6] = system: Wild Oats (Avena fatua); test: Pre-Emergent Test, herbicidal effectiveness; details: pre-emergence, 504 h, 33 micrograms per cm^2, 3 weeks, 0-to-100 scale, read-out: Herbicidal Effectiveness, % Control Pre, O
Protocol: as §1, §2

[7] = system: Crabgrass (Digitaria sanguinalis); test: Post-Emergent Test, herbicidal effectiveness; details: post-emergence, 504 h, 33 micrograms per cm^2, 3 weeks, 0-to-100 scale, read-out: Herbicidal Effectiveness, % Control Post, C
[8] = system: Lambsquarter (Chenopodium album); test: Post-Emergent Test, herbicidal effectiveness; details: post-emergence, 504 h, 33 micrograms per cm^2, 3 weeks, 0-to-100 scale, read-out: Herbicidal Effectiveness, % Control Post, L
[9] = system: Mustard (Brassica arvensis); test: Post-Emergent Test, herbicidal effectiveness; details: post-emergence, 504 h, 33 micrograms per cm^2, 3 weeks, 0-to-100 scale
[10] = system: Pigweed (Amaranthus retroflexus); test: Post-Emergent Test, herbicidal effectiveness; details: post-emergence, 504 h, 33 micrograms per cm^2, 3 weeks, 0-to-100 scale, read-out: Herbicidal Effectiveness, % Control Post, P
[11] = system: Watergrass (Echinochloa); test: Post-Emergent Test, herbicidal effectiveness; details: post-emergence, 504 h, 33 micrograms per cm^2, 3 weeks, 0-to-100 scale, read-out: Herbicidal Effectiveness, % Control Post, W
[12] = system: Wild Oats (Avena fatua); test: Post-Emergent Test, herbicidal effectiveness; details: post-emergence, 504 h, 33 micrograms per cm^2, 3 weeks, 0-to-100 scale, read-out: Herbicidal Effectiveness, % Control Post, O

Structure (SMILES) | pest or weed control at 33 µg/cm2 [1] | pest or weed control at 33 µg/cm2 [2] | pest or weed control at 33 µg/cm2 [3] | pest or weed control at 33 µg/cm2 [4] | pest or weed control at 33 µg/cm2 [5] | pest or weed control at 33 µg/cm2 [6] | pest or weed control at 5000 µg/mL, 33 µg/cm2 [7] | pest or weed control at 5000 µg/mL, 33 µg/cm2 [8] | pest or weed control at 5000 µg/mL, 33 µg/cm2 [9] | pest or weed control at 5000 µg/mL, 33 µg/cm2 [10] | pest or weed control at 5000 µg/mL, 33 µg/cm2 [11] | pest or weed control at 5000 µg/mL, 33 µg/cm2 [12]
CCc1nnc(CNc2c(CC)cccc2CC)[nH]1 [Compound 8A] | 0% | 0% | 0% | 0% | 0% | 0% | 0% | 0% | 0% | 0% | 0% | 0%
CSc1nnc(CN(C(=O)CCl)c2c(C)cccc2C)n1C [Compound 14B] | 90% | 0% | 0% | 0% | 100% | 10% | 0% | 0% | 0% | 0% | 0% | 0%
Cc1cccc(C)c1N(C(=O)CCl)C(C)c1nnc[nH]1 (stereo not drawn) [Compound 12B] | 100% | 75% | 75% | 90% | 100% | 97% | 65% | 45% | 0% | 20% | 80% | 45%
CSc1nnc(CN(C(=O)CCl)c2c(C)cccc2C)o1 [Compound 24B] | 100% | 10% | 10% | 10% | 100% | 85% | 0% | 0% | 0% | 0% | 0% | 0%
Cc1nc(CNc2c(C)cccc2C)n[nH]1 [Compound 2A, 3-(2,6-dimethylphenylaminomethyl)-5-methyl-1,2,4-triazole] | 0% | 0% | 0% | 0% | 0% | 0% | 0% | 0% | 0% | 0% | 0% | 0%
CCc1cccc(C)c1NCc1nnc(C)[nH]1 [Compound 6A] | 0% | 0% | 0% | 0% | 0% | 0% | 0% | 0% | 0% | 0% | 0% | 0%
Cc1nnc(CNc2c(C)cccc2C)o1 [Compound 1A, 2-(2,6-dimethylphenylaminomethyl)-5-methyl-1,3,4-oxadiazole] | 0% | 0% | 0% | 0% | 0% | 0% | 0% | 0% | 0% | 0% | 0% | 0%
Cc1nnc(CCNc2c(C)cccc2C)[nH]1 [Compound 10A] | 0% | 0% | 0% | 0% | 0% | 0% | 0% | 0% | 0% | 0% | 0% | 0%
CCc1cccc(C)c1NCc1nnc(C(C)C)[nH]1 [Compound 16A] | 0% | 0% | 0% | 0% | 0% | 0% | 0% | 0% | 0% | 0% | 0% | 0%
CCc1cccc(C)c1N(Cc1nnc(C)o1)C(=O)CCl [Compound 4] | 100% | 10% | 10% | 65% | 100% | 93% | 20% | 0% | 0% | 0% | 60% | 50%
CCc1nnc(CNc2c(C)cccc2CC)[nH]1 [Compound 15A] | 0% | 0% | 0% | 0% | 0% | 0% | 0% | 0% | 0% | 0% | 0% | 0%
Cc1nnc(CCN(C(=O)CCl)c2c(C)cccc2C)[nH]1 [Compound 10B] | 80% | 0% | 0% | 0% | 95% | 15% | 40% | 25% | 35% | 0% | 55% | 25%
Cc1nnc(CN(C(=O)CCl)c2c(C)cccc2C)o1 [Compound 1B, N-(5-methyl-1,3,4-oxadiazol-2-ylmethyl)-2,6-dimethyl-alpha-chloroacetanilide] | 100% | 50% | 45% | 87% | 100% | 90% | 0% | 0% | 0% | 0% | 0% | 0%
